Legend:
[1] = target: T1, human recombinant bradykinin B1 receptor (Homo sapiens, UniProt P46663); assay: Human recombinant bradykinin B1 receptor competitive radioligand binding; conditions: hB1 expressed in CHO cells, [3H]-[Des-Arg10] Kallidin radioligand; read-out: B1 binding
T1 construct: host or cells: CHO cells, clone hB1-A5
T1 sequence (P46663 1-353): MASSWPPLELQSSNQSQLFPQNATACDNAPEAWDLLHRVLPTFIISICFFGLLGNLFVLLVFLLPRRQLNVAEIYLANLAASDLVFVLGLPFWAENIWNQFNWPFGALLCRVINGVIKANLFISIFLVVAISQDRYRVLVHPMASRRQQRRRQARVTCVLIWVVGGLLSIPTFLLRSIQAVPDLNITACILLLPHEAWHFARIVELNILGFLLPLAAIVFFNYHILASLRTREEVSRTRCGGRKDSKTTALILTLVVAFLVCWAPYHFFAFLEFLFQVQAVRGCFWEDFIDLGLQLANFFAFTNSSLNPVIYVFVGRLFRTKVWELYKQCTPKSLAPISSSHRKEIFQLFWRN
How it was run: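 Membranes from CHO cells expressing hB1 (20 μg protein/tube) incubated 15 min at 25° C. with [3,4-prolyl-3,4-^3H(N)]-[Des-Arg^10] Kallidin; nonspecific binding defined with 10 μM Lys-des-Arg^9-Bradykinin. Bound label collected by filtration and counted. IC50 from ≥7-point curves in triplicate; Ki by Cheng-Prusoff.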

[2] = target: T2, recombinant human B1 receptors (Homo sapiens, UniProt P46663); assay: Functional assay: antagonist potency by cytosolic calcium measurement (plate reader fluorimeter) in CHO-B1 cells, agonist LysDABK; type: cell-based; conditions: CHO-B1 cells, inhibition of LysDABK (EC80)-evoked [Ca2+]i elevation; read-out: B1 func.
T2 construct: host or cells: CHO (CHO-B1)
T2 sequence (P46663 1-353): T1 sequence (P46663 1-353)
How it was run: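 IC50 is the concentration giving half-maximal inhibition of the LysDABK (EC80) calcium response, fitted from at least three experiments. CHO cells stably expressing human B1 were dye-loaded, exposed to compound for 20-25 min, then read by fluo-4 fluorescence (ΔF/F) at 37 °C.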

| Compound | Ki [1] [nM] | IC50 [2] [nM] |
| --- | --- | --- |
| Cc1nc(-c2c(Cl)c3ccccc3n2-c2ccc(CNC(=O)C3(NC(=O)c4cn[nH]c4)CC3)cc2)no1 [Example 141, 1H-Pyrazole-4-carboxylic acid (1-{4-[3-chloro-2-(5-methyl-[1,2,4]oxadiazol-3-yl)-indol-1-yl]-benzylcarbamoyl}-cyclopropyl)-amide] | < 20 | < 20 |
| Cc1nc(-c2cc3ccccc3n2-c2ccc(CNC(=O)C3(NC(=O)CC(F)(F)F)CC3)cc2)no1 [Example 81, 1-(3,3,3-Trifluoro-propionylamino)-cyclopropanecarboxylic acid 4-[2-(5-methyl-[1,2,4]oxadiazol-3-yl)-indol-1-yl]-benzylamide] | < 20 | < 20 |
| Cc1nc(-c2c(Cl)c3ccccc3n2-c2ccc(CNC(=O)C3(NC(=O)c4scnc4C)CC3)cc2)no1 [Example 149, 4-Methyl-thiazole-5-carboxylic acid (1-{4-[3-chloro-2-(5-methyl-[1,2,4]oxadiazol-3-yl)-indol-1-yl]-benzylcarbamoyl}-cyclopropyl)-amide] | < 20 | 20 to 100 |
| COc1cc(C(=O)NC2(C(=O)NCc3ccc(-n4c(-c5nnnn5C)c(Cl)c5ccccc54)cc3)CC2)on1 [Example 7, 3-Methoxy-isoxazole-5-carboxylic acid (1-{4-[3-chloro-2-(1-methyl-1H-tetrazol-5-yl)-indol-1-yl]-benzylcarbamoyl}-cyclopropyl)-amide] | < 20 | < 20 |
| Cc1noc(-c2c(Cl)c3ccccc3n2-c2ccc(CNC(=O)C3(NC(=O)c4cc(C5CC5)on4)CC3)cc2)n1 [Example 114, 5-Cyclopropyl-isoxazole-3-carboxylic acid (1-{4-[3-chloro-2-(3-methyl-[1,2,4]oxadiazol-5-yl)-indol-1-yl]-benzylcarbamoyl}-cyclopropyl)-amide] | < 20 | < 20 |
| COc1cc(C(=O)NC2(C(=O)NCc3ccc(-n4c(C#N)cc5cc(F)ccc54)cc3)CC2)on1 [Example 49, 3-Methoxy-isoxazole-5-carboxylic acid {1-[4-(2-cyano-5-fluoro-indol-1-yl)-benzylcarbamoyl]-cyclopropyl}-amide] | < 20 | < 20 |
| COc1ccc2c(c1)cc(-c1nc(C)no1)n2-c1ccc(CNC(=O)C2(NC(=O)c3cccnc3F)CC2)cc1 [Example 116, 2-Fluoro-N-(1-{4-[5-methoxy-2-(3-methyl-[1,2,4]oxadiazol-5-yl)-indol-1-yl]-benzylcarbamoyl}-cyclopropyl)-nicotinamide] | 20 to 100 | 20 to 100 |
| COc1cc(C(=O)NC2(C(=O)NCc3ccc(-n4c(-c5nnn(C)n5)c(Cl)c5ccccc54)cn3)CC2)on1 [Example 60] | < 20 | < 20 |
| Cc1nc(-c2c(Cl)c3ccccc3n2-c2ccc(CNC(=O)C3(NC(=O)c4cc(C5CC5)on4)CC3)cc2)no1 [Example 165, 5-Cyclopropyl-isoxazole-3-carboxylic acid (1-{4-[3-chloro-2-(5-methyl-[1,2,4]oxadiazol-3-yl)-indol-1-yl]-benzylcarbamoyl}-cyclopropyl)-amide] | < 20 | < 20 |
| COc1ccc2c(c1)c(Cl)c(-c1noc(C)n1)n2-c1ccc(CNC(=O)C2(NC(=O)c3cncc(C(F)(F)F)c3)CC2)cc1 [Example 130, N-(1-{4-[3-Chloro-5-methoxy-2-(5-methyl-[1,2,4]oxadiazol-3-yl)-indol-1-yl]-benzylcarbamoyl}-cyclopropyl)-5-trifluoromethyl-nicotinamide] | < 20 | < 20 |
| Cn1nnc(-c2c(Cl)c3ccccc3n2-c2ccc(CNC(=O)C3(NC(=O)c4cccnc4Cl)CC3)cc2)n1 [Example 27, 2-Chloro-N-(1-{4-[3-chloro-2-(2-methyl-2H-tetrazol-5-yl)-indol-1-yl]-benzylcarbamoyl}-cyclopropyl)-nicotinamide] | < 20 | < 20 |
| COc1ccc2c(c1)c(Cl)c(-c1noc(C)n1)n2-c1ccc(CNC(=O)C2(NC(=O)c3cnc(C)cn3)CC2)cc1 [Example 129, 5-Methyl-pyrazine-2-carboxylic acid (1-{4-[3-chloro-5-methoxy-2-(5-methyl-[1,2,4]oxadiazol-3-yl)-indol-1-yl]-benzylcarbamoyl}-cyclopropyl)-amide] | < 20 | < 20 |
| Cc1nc(-c2c(Cl)c3ccccc3n2-c2ccc(CNC(=O)C3(NC(=O)c4cccc(C#N)c4)CC3)cc2)no1 [Example 146, N-(1-{4-[3-Chloro-2-(5-methyl-[1,2,4]oxadiazol-3-yl)-indol-1-yl]-benzylcarbamoyl}-cyclopropyl)-3-cyano-benzamide] | < 20 | < 20 |
| COc1ccc2c(c1)c(Cl)c(-c1noc(C)n1)n2-c1ccc(CNC(=O)C2(NC(=O)C(F)(F)F)CC2)cc1 [Example 63, 1-(2,2,2-Trifluoro-acetylamino)-cyclopropanecarboxylic acid 4-[3-chloro-5-methoxy-2-(5-methyl-[1,2,4]oxadiazol-3-yl)-indol-1-yl]-benzylamide] | < 20 | < 20 |
| Cc1nc(-c2c(Cl)c3ccccc3n2-c2ccc(CNC(=O)C3(NC(=O)C(F)(F)F)CC3)cc2)no1 [Example 23, 1-(2,2,2-Trifluoro-acetylamino)-cyclopropanecarboxylic acid 4-[3-chloro-2-(5-methyl-[1,2,4]oxadiazol-3-yl)-indol-1-yl]-benzylamide] | < 20 | < 20 |
| Cc1nc(-c2c(Cl)c3ccccc3n2-c2ccc(CNC(=O)C3(NC(=O)c4cccs4)CC3)cc2)no1 [Example 172, Thiophene-2-carboxylic acid (1-{4-[3-chloro-2-(5-methyl-[1,2,4]oxadiazol-3-yl)-indol-1-yl]-benzylcarbamoyl}-cyclopropyl)-amide] | < 20 | < 20 |
| Cc1nc(-c2c(Cl)c3ccccc3n2-c2ccc(CNC(=O)C3(NC(=O)c4cncc(C(F)(F)F)c4)CC3)cc2)no1 [Example 180, N-(1-{4-[3-Chloro-2-(5-methyl-[1,2,4]oxadiazol-3-yl)-indol-1-yl]-benzylcarbamoyl}-cyclopropyl)-5-trifluoromethyl-nicotinamide] | < 20 | < 20 |
| Cn1nnc(-c2c(Cl)c3cc(Cl)ccc3n2-c2ccc(CNC(=O)C3(NC(=O)C(F)(F)F)CC3)cc2)n1 [Example 17, 1-(2,2,2-Trifluoro-acetylamino)-cyclopropanecarboxylic acid 4-[3,5-dichloro-2-(2-methyl-2H-tetrazol-5-yl)-indol-1-yl]-benzylamide] | < 20 | < 20 |
| COc1cc(C(=O)NC2(C(=O)NCc3ccc(-n4c(-c5noc(C)n5)c(Cl)c5cc(F)ccc54)cc3)CC2)on1 [Example 67, 3-Methoxy-isoxazole-5-carboxylic acid (1-{4-[3-chloro-5-fluoro-2-(5-methyl-[1,2,4]oxadiazol-3-yl)-indol-1-yl]-benzylcarbamoyl}-cyclopropyl)-amide] | < 20 | < 20 |
| COc1ccc2c(c1)cc(-c1nc(C)no1)n2-c1ccc(CNC(=O)C2(NC(=O)CC(F)(F)F)CC2)cc1 [Example 78, 1-(3,3,3-Trifluoro-propionylamino)-cyclopropanecarboxylic acid 4-[5-methoxy-2-(3-methyl-[1,2,4]oxadiazol-5-yl)-indol-1-yl]-benzylamide] | < 20 | < 20 |
| Cn1nnc(-c2c(Cl)c3ccccc3n2-c2ccc(CNC(=O)C3(NC(=O)c4cc(C5CC5)on4)CC3)cc2)n1 [Example 24, 5-Cyclopropyl-isoxazole-3-carboxylic acid (1-{4-[3-chloro-2-(2-methyl-2H-tetrazol-5-yl)-indol-1-yl]-benzylcarbamoyl}-cyclopropyl)-amide] | < 20 | < 20 |
| COC(=O)c1c(Cl)c2ccccc2n1-c1ccc(CNC(=O)C2(NC(=O)c3cc(OC)no3)CC2)c(F)c1 [Example 55, 3-Chloro-1-{3-fluoro-4-[({1-[(3-methoxy-isoxazole-5-carbonyl)-amino]-cyclo-propanecarbonyl}-amino)-methyl]-phenyl}-1H-indole-2-carboxylic acid methyl ester] | < 20 | < 20 |
| Cn1nnc(-c2c(Cl)c3ccccc3n2-c2ccc(CNC(=O)C3(NC(=O)c4cncc(C(F)(F)F)c4)CC3)cc2)n1 [Example 30, N-(1-{4-[3-chloro-2-(2-methyl-2H-tetrazol-5-yl)-indol-1-yl]-benzylcarbamoyl}-cyclopropyl)-5-trifluoromethyl-nicotinamide] | < 20 | < 20 |
| Cc1nc(-c2c(Cl)c3ccccc3n2-c2ccc(CNC(=O)C3(NC(=O)C4CCCC4)CC3)cc2)no1 [Example 144, Cyclopentanecarboxylic acid (1-{4-[3-chloro-2-(5-methyl-[1,2,4]oxadiazol-3-yl)-indol-1-yl]-benzylcarbamoyl}-cyclopropyl)-amide] | 20 to 100 | 20 to 100 |

From US20130217702A1 (Richter Gedeon Nyrt., priority 2010, published 2013)
